Reference: patent publication US10336732B2, “1-heterocyclyl isochromanyl compounds and analogs for treating CNS disorders” (Sunovion Pharmaceuticals Inc., priority 2015, dated 2019)

Test system: mice
Assay: Neuropharmacological assay (SmartCube), behavioral signature of compound-treated mice
Assay type: in vivo
Conditions: i.p. 15 min before behavioral test, most efficacious dose(s) of 3 doses
In short: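 Mice received compound i.p. in NMP/PEG/propylene glycol vehicle at 3 doses, 15 min before testing. Video-captured behavior was algorithmically compared with a reference-drug signature database.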

| Structure (SMILES) | AD: ADHD (probability that behavioral signature matches class) | AG: analgesic (probability that behavioral signature matches class) | AX: anxiolytic (probability that behavioral signature matches class) | CE: cognitive enhancer (probability that behavioral signature matches class) | DP: anti-depressant (probability that behavioral signature matches class) | HA: hallucinogen (probability that behavioral signature matches class) | MS: mood stabilizer (probability that behavioral signature matches class) | PS: anti-psychotic (probability that behavioral signature matches class) | SD: sedative hypnotic (probability that behavioral signature matches class) | UN: uncharacterized CNS activity (probability that behavioral signature matches class) | XG: anxiogenic (probability that behavioral signature matches class) |
| --- | --- | --- | --- | --- | --- | --- | --- | --- | --- | --- | --- |
| Clc1ccc2c(c1)[C@H]([C@@H]1CCCN1)OCC2 [Compound I-29, (S)-2-((R)-7-chloroisochroman-1-yl)pyrrolidine] | + (LOQ ≤ + <5%) | ++ (5% ≤ ++ <25%) | +++ (25% ≤ +++ <50%) | +++ (25% ≤ +++ <50%) | ++ (5% ≤ ++ <25%) | + (LOQ ≤ + <5%) | ++ (5% ≤ ++ <25%) | ++ (5% ≤ ++ <25%) | + (LOQ ≤ + <5%) | ++ (5% ≤ ++ <25%) | + (LOQ ≤ + <5%) |
| Fc1ccc2c(c1)CCO[C@H]2[C@@H]1CCN1 [Compound I-90, (S)-2-((R)-6-fluoroisochroman-1-yl)azetidine] | + (LOQ ≤ + <5%) | ++ (5% ≤ ++ <25%) | +++ (25% ≤ +++ <50%) | ++ (5% ≤ ++ <25%) | +++ (25% ≤ +++ <50%) | + (LOQ ≤ + <5%) | + (LOQ ≤ + <5%) | ++ (5% ≤ ++ <25%) | ++ (5% ≤ ++ <25%) | ++ (5% ≤ ++ <25%) | + (LOQ ≤ + <5%) |
| Fc1cccc2c1CCO[C@@H]2[C@H]1CCN1 [Compound I-96, (R)-2-((S)-5-fluoroisochroman-1-yl)azetidine] | + (LOQ ≤ + <5%) | +++ (25% ≤ +++ <50%) | ++ (5% ≤ ++ <25%) | ++ (5% ≤ ++ <25%) | +++ (25% ≤ +++ <50%) | + (LOQ ≤ + <5%) | ++ (5% ≤ ++ <25%) | +++ (25% ≤ +++ <50%) | + (LOQ ≤ + <5%) | + (LOQ ≤ + <5%) | + (LOQ ≤ + <5%) |
| Fc1ccc2c(c1)[C@H]([C@@H]1CCCN1)OCC2 [Compound I-5, (2S)-2-((R)-7-fluoroisochroman-1-yl)pyrrolidine] | + (LOQ ≤ + <5%) | ++ (5% ≤ ++ <25%) | ++ (5% ≤ ++ <25%) | ++ (5% ≤ ++ <25%) | ++ (5% ≤ ++ <25%) | + (LOQ ≤ + <5%) | ++ (5% ≤ ++ <25%) | +++ (25% ≤ +++ <50%) | + (LOQ ≤ + <5%) | +++ (25% ≤ +++ <50%) | + (LOQ ≤ + <5%) |
| Fc1cccc2c1[C@H]([C@@H]1CCN1)OCC2 [Compound I-83, (S)-2-((R)-8-fluoroisochroman-1-yl)azetidine] | ++ (5% ≤ ++ <25%) | ++ (5% ≤ ++ <25%) | ++ (5% ≤ ++ <25%) | +++ (25% ≤ +++ <50%) | ++ (5% ≤ ++ <25%) | + (LOQ ≤ + <5%) | ++ (5% ≤ ++ <25%) | +++ (25% ≤ +++ <50%) | + (LOQ ≤ + <5%) | + (LOQ ≤ + <5%) | + (LOQ ≤ + <5%) |
| Fc1cccc2c1CCO[C@@H]2[C@@H]1CCN1 [Compound I-94, (S)-2-((S)-5-fluoroisochroman-1-yl)azetidine] | + (LOQ ≤ + <5%) | ++ (5% ≤ ++ <25%) | ++ (5% ≤ ++ <25%) | ++ (5% ≤ ++ <25%) | +++ (25% ≤ +++ <50%) | + (LOQ ≤ + <5%) | + (LOQ ≤ + <5%) | +++ (25% ≤ +++ <50%) | + (LOQ ≤ + <5%) | ++ (5% ≤ ++ <25%) | + (LOQ ≤ + <5%) |
| Fc1cccc2c1[C@H]([C@@H]1CCCN1)OCC2 [Compound I-1, (S)-2-((R)-8-fluoroisochroman-1-yl)pyrrolidine] | + (LOQ ≤ + <5%) | ++ (5% ≤ ++ <25%) | ++ (5% ≤ ++ <25%) | ++ (5% ≤ ++ <25%) | ++ (5% ≤ ++ <25%) | + (LOQ ≤ + <5%) | ++ (5% ≤ ++ <25%) | +++ (25% ≤ +++ <50%) | ++ (5% ≤ ++ <25%) | ++ (5% ≤ ++ <25%) | + (LOQ ≤ + <5%) |
| Fc1ccc2c(c1)CCO[C@H]2[C@@H]1CCCN1 [Compound I-9, (S)-2-((R)-6-fluoroisochroman-1-yl)pyrrolidine] | + (LOQ ≤ + <5%) | ++ (5% ≤ ++ <25%) | ++ (5% ≤ ++ <25%) | ++ (5% ≤ ++ <25%) | ++ (5% ≤ ++ <25%) | + (LOQ ≤ + <5%) | ++ (5% ≤ ++ <25%) | +++ (25% ≤ +++ <50%) | ++ (5% ≤ ++ <25%) | +++ (25% ≤ +++ <50%) | + (LOQ ≤ + <5%) |
